Reference: patent publication US20250129096A1, “ANNULATED 2-AMINO-3-CYANO THIOPHENES AND DERIVATIVES FOR THE TREATMENT OF CANCER” (Boehringer Ingelheim Int'l GmbH Corp., priority 2021, published 2025)

Key:
KRAS (G12C)::SOS1 = molecular target: T1, KRAS (G12C)::SOS1 (Homo sapiens, UniProt P01116, C118S/C51S/C80L/G12C); experiment: KRAS::SOS1 AlphaScreen binding assay, KRAS G12C
T1 construct: KRAS (G12C) 1-169, N-terminal 6His-tag for purification, cleaved off; 6His-tag (N, cleaved yes)
Method: Low IC50 values in this assay setting are indicative of strong inhibition of protein-protein interaction between SOS1 and KRAS:
These assays measure the inhibitory effect of compounds on KRAS mutant protein-protein interactions using the Alpha Screen technology by Perkin Elmer.
For the chosen highest assay concentration of 100 μM, 150 nL of compound solution are transferred from a 10 mM DMSO compound stock solution. A series of eleven fivefold dilutions per compound are transferred to the assay plate, compound dilutions are tested in duplicates. DMSO are added as backfill to a total volume of 150 nL.
The assays run on a fully automated robotic system in a darkened room below 100 Lux. To 150 nl of compound dilution 10 μl of a mix including KRAS mutant protein, SOS1 (final assay concentrations see above) and GDP nucleotide (Sigma G7127; final assay concentration 10 μM) in assay buffer (1×PBS, 0.1% BSA, 0.05% Tween 20) are added into columns 1-24. After 30 minutes incubation time 5 μl of Alpha Screen bead mix in assay buffer are added into columns 1-23.
Plates are kept at room temperature in a darkened incubator. After an additional 60 minutes incubation time the signal is measured in a PerkinElmer Envision HTS Multilabel Reader using the AlphaScreen specs from PerkinElmer.
IC50 values are calculated and analyzed with Boehringer Ingelheim's MEGALAB IC50 application using a 4 parametric logistic model.

LOVO cells (CRC, G13D) = experiment: LOVO CTG proliferation assay (120 h); format: cell-based; conditions: Homo sapiens, CellTiter-Glo
Method: LOVO cells (ATCC CCL-229) are dispensed into 384-well plates, flat and clear bottom (Greiner, PNr. 781091) at a density of 1000 cells per well in 60 μL DMEM (Sigma D6429)+10% Fetal Calf Serum (HyClone, PNr.: SH30084.03) and incubated at 37° C. in a CO2 incubator overnight. The next day, compounds (10 mM stock in DMSO) are added with the ECHO acoustic liquid handler system (Beckman Coulter), including DMSO controls. Plates are incubated for 120 h, and cell viability is measured using CellTiter-Glo luminescent cell viability reagent (Promega product code G7570). Viability (stated as percent of control) is defined as relative luminescence units RLU of each well divided by the RLU of cells in DMSO controls. IC50 values are determined from viability measurements by non-linear regression using a four-parameter model.

Caco-2 assay = format: in vitro ADME; conditions: human; for Papp A→B at 90 min, 10 μM: Caco-2, apical to basolateral, pH 7.4, read-out: Caco PappAB; for efflux ratio at 90 min, 10 μM: Caco-2, pH 7.4, efflux ratio PappBA/PappAB, read-out: Caco ER
From the text: The assay provides information on the potential of a compound to pass the cell membrane, on the extent of oral absorption as well as on whether the compound is actively transported by uptake and/or efflux transporters. Permeability measurements across polarized, confluent Caco-2 cell monolayers grown on permeable filter supports (Corning, catalog #3391) are used. […] The receiver and donor compartments contain 0.25% bovine serum albumine (BSA) in assay buffer. Passive diffusion and/or active transport of compounds across the monolayer is measured in both apical to basolateral (a-b) and basolateral to apical (b-a) direction. a-b permeability (PappAB) represents drug absorption from the intestine into the blood and b-a permeability (PappBA) drug secretion from the blood back into the intestine via both passive permeability as well as active transport mechanisms mediated by efflux and uptake transporters that are expressed on the Caco-2 cells. After a pre-incubation of 25-30 min at 37° C., at predefined time points (0, 30, 60 and 90 min), samples were taken from the receiver and donor compartment, respectively. Concentrations of test compounds in samples were measured by HPLC/MS/MS, samples from the donor compartment were diluted 1:50 (v:v) with assay buffer, samples from receiver compartment were measured without dilution.
Apparent permeabilities in a-b (PappAB) and b-a (PappBA) directions are calculated according to the formula:
[formula] • Vrec [mL]: buffer volume in receiver compartment • Cdon [μmol/mL]: concentration of test compound in donor compartment at t=0 • ΔCrec: difference between concentrations of test compound in receiver compartment at start and end of incubation time • Δt: Incubation time • Vrec·ΔCrec/Δt [μmol/min]: Amount of compound transferred to receiver compartment per time • A [cm^2]: filter surface
Caco-2 efflux ratios (ER) are calculated as the ratio of PappBA/PappAB.

[1] = tested on: NCI-H358 cells (NSCLC, G12C); experiment: NCI-H358 CTG proliferation assay (120 h), assay 2; format: cell-based; conditions: Homo sapiens, CellTiter-Glo, 384-well, 200 cells per well
Method: NCI-1H358 cells (ATCC No. CRL-5807) are dispensed into white bottom opaque 96 well plates (Perkin Elmer cat no. 5680) at a density of 2000 cells per well in 100 μL RPM 1-1640 ATCC-Formulation (Gibco #A10491)+10% FCS (fetal calf serum) (assay 1) or into black 384-well plates, flat and clear bottom (Greiner, PNr. 781091) at a density of 200 cells per well in 60 μl RPMI-1640 ATCC-Formulation (Gibco #A10491)+10% FCS (fetal calf serum) (assay 2). […] Compounds (10 mM stock in DMSO) are added at logarithmic dose series using the HP Digital Dispenser D300 (Tecan) (assay 1) or the ECHO acoustic liquid handler system (Beckman Coulter) (assay 2), normalizing for added DMSO and including DMSO controls. For the TO time point measurement, untreated cells are analyzed at the time of compound addition. Plates are incubated for 120 h, and cell viability is measured using CellTiter-Glo luminescent cell viability reagent (Promega product code G7570). Viability (stated as percent of control) is defined as relative luminescence units RLU of each well divided by the RLU of cells in DMSO controls. IC50 values are determined from viability measurements by non-linear regression using a four-parameter model.

[2] = tested on: GP2D cells (colorectal cancer, G12D); experiment: GP2D proliferation assay (120 h); format: cell-based; conditions: CellTiter-Glo
Method: GP2D cells (ATCC No. CRL-5807) are dispensed into white 384-well plates, flat and white bottom (Perkin Elmer, 6007680) at a density of 500 cells per well in 40 μl DMEM (Sigma, D6429)+1× GlutaMAX (Gibco, 35050038)+10% FCS (fetal calf serum). […] Compounds (10 mM stock in DMSO) are added at logarithmic dose series using the HP Digital Dispenser D300 (Tecan), including DMSO controls and normalizing for added DMSO. For the TO time point measurement, untreated cells are analyzed at the time of compound addition. Plates are incubated for 120 h, and cell viability is measured using CellTiter-Glo luminescent cell viability reagent (Promega product code G7570). Viability (stated as percent of control) is defined as relative luminescence units RLU of each well divided by the RLU of cells in DMSO controls. IC50 values are determined from viability measurements by non-linear regression using a four-parameter model.

T1 sequence (P01116 1-169 isoform P01116-2 G12C/C51S/C80L/C118S): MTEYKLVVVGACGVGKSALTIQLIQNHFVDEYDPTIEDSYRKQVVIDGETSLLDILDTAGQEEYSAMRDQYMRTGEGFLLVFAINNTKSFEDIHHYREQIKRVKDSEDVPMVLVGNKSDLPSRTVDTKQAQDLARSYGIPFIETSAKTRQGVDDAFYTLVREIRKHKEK

| Structure (SMILES) | IC50 (KRAS (G12C)::SOS1) | IC50 (LOVO cells (CRC, G13D)) | Papp A→B at 90 min, 10 μM (Caco-2 assay) | efflux ratio at 90 min, 10 μM (Caco-2 assay) | IC50 [1] | IC50 [2] |
| --- | --- | --- | --- | --- | --- | --- |
| C[C@H]1CNCCCN1c1nccc(-c2noc3c2CCC[C@@]32CCCc3sc(N)c(C#N)c32)n1 (single isomer, unassigned) [IIb-5] | 7 nM | 2870 nM | 13 ×10⁻⁶ cm/s | 1.2 |  |  |
| CC1Cc2c(-c3ccnc(N4CCCNC[C@@H]4C)n3)noc2C2(CCCc3sc(N)c(C#N)c32)C1 (some centres unmarked) [IIb-1] | 44 nM | 2420 nM |  |  |  |  |
| C[C@H]1CNCCCN1c1nccc(-c2noc3c2CC(F)(F)CC32CCCc3sc(N)c(C#N)c32)n1 (some centres unmarked) [IIb-2] | 39 nM | 3250 nM |  |  |  |  |
| C[C@H](Oc1ccnc(-c2noc3c2CCC[C@@]32CCCc3sc(N)c(C#N)c32)n1)[C@@H]1CCCN1C [IIb-3] | 3 nM |  | 17 ×10⁻⁶ cm/s | 2 | 743 nM | 171 nM |
| C[C@H]1CNCCCN1c1nccc(-c2noc3c2CSCC32CCCc3sc(N)c(C#N)c32)n1 (some centres unmarked) [IIb-4] | 19 nM | 1660 nM |  |  |  |  |
| C[C@H]1CNCCCN1c1nccc(-c2noc3c2OCCC32CCCc3sc(N)c(C#N)c32)n1 (some centres unmarked) [IIb-7] | 4 nM | 479 nM |  |  |  |  |
| C[C@H](Oc1nccc(-c2noc3c2CCC[C@@]32CCCc3sc(N)c(C#N)c32)n1)[C@@]1(C)CCCN1C [IIe-1] | 8 nM | 3810 nM |  |  |  |  |
| C[C@H]1CNCCN1c1nccc(-c2noc3c2CCC[C@@]32CCCc3sc(N)c(C#N)c32)n1 [IIf-1] |  | 479 nM | 12 ×10⁻⁶ cm/s |  | 3000 nM | 228 nM |
| C[C@@H]1NCCCN(c2nccc(-c3onc4c3CCC[C@@]43CCCc4sc(N)c(C#N)c43)n2)[C@H]1C [Ib-2] | 14 nM | 1100 nM |  |  |  |  |
| C[C@H]1CNCCCN1c1ncnc(-c2onc3c2CCC[C@@]32CCCc3sc(N)c(C#N)c32)n1 [Ib-4] | 9 nM | 7250 nM |  |  |  |  |
| C[C@H]1[C@@H]2CCCN2CCCN1c1nccc(-c2onc3c2CCC[C@@]32CCCc3sc(N)c(C#N)c32)n1 [Id-1] | 3 nM | 10000 nM |  |  |  | 69 nM |
| CO[C@@H]1C[C@@H]([C@H](C)Oc2nccc(-c3onc4c3CCC[C@@]43CCCc4sc(N)c(C#N)c43)n2)N(C)C1 [Ie-1] | 3 nM | 333 nM |  |  |  |  |
| C[C@H](Oc1nccc(-c2onc3c2CCC[C@@]32CCCc3sc(N)c(C#N)c32)n1)[C@@H]1C[C@@H](F)CN1C [Ie-2] | 5 nM | 567 nM | 33 ×10⁻⁶ cm/s | 0.6 |  | 526 nM |
| CCN1[C@H]2C[C@H]2C[C@H]1[C@H](C)Oc1nccc(-c2onc3c2CCC[C@@]32CCCc3sc(N)c(C#N)c32)n1 [Ie-3] | 7 nM | 539 nM |  |  | 1710 nM |  |
| CC(Oc1nccc(-c2onc3c2CCC[C@@]32CCCc3sc(N)c(C#N)c32)n1)C12CCCN1CCC2 (some centres unmarked) [Ie-5] | 6 nM | 178 nM |  |  |  |  |
| C[C@H]1CNCCCN1c1nccc(-c2onc3c2CCC[C@@]32CCCc3sc(N)c(C#N)c32)n1 [If-1] | 8 nM | 3060 nM | 9.4 ×10⁻⁶ cm/s | 3.2 | 2200 nM | 936 nM |
| C[C@H](Oc1nccc(-c2onc3c2CCC[C@@]32CCCc3sc(N)c(C#N)c32)n1)[C@@H]1C[C@@H]2C[C@@H]2N1 [If-2] | 15 nM | 10900 nM |  |  |  |  |
| C[C@H](Oc1nccc(-c2onc3c2CCC[C@@]32CCCc3sc(N)c(C#N)c32)n1)[C@@H]1C[C@@H]2C[C@@H]2N1C [Ih-1] | 7 nM | 618 nM |  |  | 3570 nM |  |
